Assay results reported in a melting point compilation (Tetko et al.; mined from patent text by program, amines drawn as free bases though some values may be those of a salt).

Structure (SMILES) | melting point [°C]
CC(=O)N(C)N(C)c1ccnc2c(NC(=O)c3c(Cl)cccc3Cl)cccc12 | 243 to 244
O=C(c1ccc(Cl)cc1)N1CC2CC2(c2ccc(Cl)cc2)C1 (stereo unspecified) | 88 to 92
CN(C)c1ccc(-c2cccc(OC3SCC(O)C(O)C3O)c2)cn1 (stereo unspecified) | 119
COc1ccc2cccc(CC#N)c2c1 | 83
CCN(CC)CCCCC(=O)c1ccc2c(c1)Cc1cc(C(=O)CCCCN(CC)CC)ccc1-2 | 78 to 80
N#Cc1ccc(-c2ccc(-c3ccc(-c4ccc(C#N)cc4)o3)o2)cc1 | 298 to 299
O=C1c2ccccc2C(=O)N1c1n[nH]c2ccc(O)cc12 | > 270
Cc1c(C(=O)N(C)N2CC=CCC2)nn(-c2ccc(Cl)cc2Cl)c1-c1ccc(Cl)cc1 | 138
CCc1cc(OC)c(N)c2ccccc12 | 80
CCc1noc(-c2cn(-c3nccs3)cn2)n1 | 147 to 148
COc1cc(C)c(CNCCc2ccc(O)cc2)cc1O | 122 to 124
CC(NC(=O)OCc1ccccc1)C(=O)N1CC(=O)NC1(C)C (stereo unspecified) | 170 to 171
c1ccc(-c2ccc(CCCN3CCN(c4ccccc4)CC3)o2)cc1 | 95
O=C(Nc1ccc(CCO)c(CO)c1)OCc1ccccc1 | 101 to 103
NC(=O)[C@H](Cc1cccnc1)NC(=O)OCc1ccccc1 | 153
CC(=O)n1cc(-c2ccccc2)c(O)n1 | 215
Cc1nc(C)c(Cl)c(NCc2nccc(N(C)CCCSCCn3c([N+](=O)[O-])cnc3C)c2Cl)n1 | 123 to 126
CCS(=O)(=O)N(c1ccc(F)cc1Br)S(=O)(=O)CC | 114 to 116
CC(C)N1C(=O)NC(c2ccc3c(c2)CCO3)c2cc3c(cc21)OCO3 (stereo unspecified) | 183 to 185
CCOc1nc2cccc(C(=O)OC(C)OC(=O)OC3CCCCC3)c2n1Cc1ccc(-c2ccccc2-c2nc(=O)o[nH]2)cc1 (stereo unspecified) | 108 to 109
NS(=O)(=O)Oc1ccc(C(=O)c2ccccc2)cc1 | 131 to 133
CCCc1nc(C)c2c(=O)[nH]c(N)nn12 | 266
CC(NC(=O)Cc1cc(F)cc(F)c1)C(=O)NC1C(=O)NC(c2cccnc2)c2ccccc21 (stereo unspecified) | 100 to 120
CC(=O)c1ccc(NS(C)(=O)=O)c(Nc2ccc(F)cc2F)c1 | 113 to 115
Cc1sc2c(Br)c3ccccc3c(-c3ccc(O)cc3)c2c1C | 165 to 168
CCOCC(=O)Nc1nc(-c2ccco2)c(C(=O)C2CCOCC2)s1 | 121 to 126

Structure (SMILES) | melting point [°C]
FC(F)(F)c1ccc(-c2cc(C(F)(F)F)cc(Br)n2)cc1 | 35 to 37
O=C(c1ccccc1)c1cc(Cl)ccc1-n1cnnc1CN1C(=O)c2ccccc2C1=O | 229 to 230
O=C(NCc1cccnc1)C(F)(F)F | 102 to 104
ClCc1cccc(OCc2ccc3ccccc3n2)c1 | 39 to 43
CC(C)S(=O)(=O)C1C(=O)N(Cc2ccccc2)C(=O)c2ccc(Cl)cc21 (stereo unspecified) | 150 to 152
CC(=O)Nc1c(Cl)cc(CC(=O)O)cc1Cl | 209 to 211
COc1c(C)cccc1C(=O)O | 70 to 75
COc1nccc(C)c1NC(=O)c1cc(C)nc2c1c(C)nn2-c1ccccc1 | 172 to 174
CCC(=O)Cc1cc(OC)ccc1NC(=O)OC(C)(C)C | 80 to 81
O=C(c1ccccc1)c1ccccc1I | 29 to 31
CCOC(=O)C1(C(=O)OCC)CC(c2ccc(Cl)cc2N)=CN1C(C)=O | 152 to 153
CC(=O)c1c(O)c(=O)[nH]c2cc(Cl)ccc2c1=O | 254 to 256
CCCn1c(=O)c2c(n(Cc3ccccc3)c1=O)NN=C(NC(C)=O)S2 | 135 to 140
CCCC[C@@H](O)[C@H](O)CCCC | 48 to 49
Cc1ccc(S(=O)(=O)N2CCCC(S(=O)(=O)c3ccc(F)cc3)C2)cc1 (stereo unspecified) | 186
O=C(NCCCO)c1ccc(O)cc1 | 118 to 120
CCOC(=O)C(=O)Nc1sc(C(=O)OCC)c(C)c1[N+](=O)[O-] | 118 to 120
COC(=O)N1C2C3C=CC(C3OC(C)(C)C)C2N1C(=O)OC (stereo unspecified) | 86
COC(=O)C(C(=O)N1CCOCC1)C(c1ccccc1)c1cc2cc(Br)ccc2nc1OC (stereo unspecified) | 206 to 208
Cc1ccc(F)cc1C(=O)Nc1ccc(C(=O)N2Cc3ccccc3Oc3ncccc32)cn1 | 187 to 189
O=c1ccoc(C=Cc2ccc(O)cc2)c1 | 198 to 201
CC(=NO)C1=CCN(C)CC1 | 166 to 168
Cc1ccc(OCC2CO2)c([N+](=O)[O-])c1[N+](=O)[O-] (stereo unspecified) | 121 to 123
O=c1ccc(Oc2ccc3c(c2)CCC2(CCNCC2)O3)n[nH]1 | 233 to 235
CS(=O)(=O)c1ccc(C(CC2CCCC2)C(=O)Nc2cnc(C(C#N)=NO)cn2)cc1Cl (stereo unspecified) | 130 to 133
COC(=O)c1nc(N=C=S)ccc1Oc1nc(OC)cc(OC)n1 | 116 to 117

Structure (SMILES) | melting point [°C]
COC(=O)C1=C(C)NC(C)=C(C(=O)OCCN2CCN(C(c3ccccc3)c3ccccc3)CC2)C1c1cccc(Cl)c1 (stereo unspecified) | 74 to 80
CC(=O)O[C@H]1CC[C@H](CCCCCC(=O)O)CC1 | 82 to 86
O=c1c(CCCc2ccccn2)cc2cccnc2n1-c1cccc([N+](=O)[O-])c1 | 201 to 202
CC(C)(C)C(=O)C=C(C(=O)C(C)(C)C)n1cncn1 | 107 to 108
CSc1ccc(-c2coc3ccc(-c4nnc(C)o4)cc23)cc1F | 179 to 180
CS(=O)(=O)NCC(=O)N1CCC(C2c3ncc(Br)cc3CCc3cc(Cl)cc(Cl)c32)CC1 (single isomer, unassigned; (+)) | 120 to 140
CNS(=O)(=O)c1cc(S(=O)(=O)Cl)c(Cl)cc1N | 153 to 155
CC(=C1SCCCS1)c1ccc(N2CCN(C)CC2)cc1 | 91 to 92
CC(=O)NCc1cccc(Nc2nccc(-c3sc(NCc4ccccc4)nc3C)n2)c1 | 181 to 183
NC(=O)CN1CC[C@H](OCc2cc(C(F)(F)F)cc(C(F)(F)F)c2)[C@H](c2ccccc2)C1 (relative stereo) | 123 to 125
CCCCc1oc2ccccc2c1C(=O)c1ccc2c(Br)c(OCc3nnn[nH]3)ccc2c1 | 160 to 162
Cc1nc(-c2ccc(OCc3cccnc3)cc2)no1 | 55 to 56
O=C(NCc1ccncc1)c1cc2ccnc(Cl)c2[nH]1 | > 340
COC(=O)CCc1ccc(NC(=O)N(NC(=O)c2ccccc2)c2ccc(C#N)cc2)cc1 | 76 to 81
Cc1nn(-c2ccccn2)c(-c2ccccc2)c1CC(=O)O | 182 to 183
NC(=O)N(O)Cc1ccc(C(O)C#Cc2cccc(Cl)c2)cc1 (stereo unspecified) | 118 to 119
Cc1c(-c2cc(C(F)(F)F)cc(C(F)(F)F)c2)ccc2nc(N=CN(C)C)nc(N=CN(C)C)c12 | 208 to 210
CCc1nc(Cl)nc(N)c1C#N | 226
CC1(C2CCCC2)Cc2cc(OCC(=O)O)c(Cl)c(Cl)c2C1O (stereo unspecified) | 129 to 131
COC1CN(c2ccc(N3C[C@H](CN=[N+]=[N-])OC3=O)cc2F)C1 | 111 to 112
COc1cc2c(Cl)c(C#N)cnc2cc1OS(=O)(=O)C(F)(F)F | 112 to 113
NC(=O)N(c1ccccc1)c1nc(Cl)nc(Cl)n1 | 151 to 154
BrCCCCCCOc1ccc(OCc2ccccc2)cc1 | 72 to 73
NC1CCc2cc3c(cc2C1)OCC3 (stereo unspecified) | 60
CCOC(=O)c1cn(-c2ccc(F)cc2F)c2nc(N3CCC(N)C3)c(F)cc2c1=O (stereo unspecified) | 200 to 202
O=C(O)CCc1cc(CCNS(=O)(=O)c2ccc(Cl)cc2)cc(Cc2ccc(F)cc2)c1 | 85 to 87

Structure (SMILES) | melting point [°C]
C#Cc1cccc(OCc2ccc(OC)cc2)c1 | 92 to 95
CCCCc1nc2c(N)nc3ccccc3c2n1CCCNC(=S)NCCC | 144 to 146
CC(C)CN1N(C)Nc2c3ncnc-3c3ccncc3n21 | 157 to 158
Cc1cn(-c2cc(NC(=O)c3ccc(Cl)c(C#Cc4cnc(NC5CC5)nc4)c3)cc(C(F)(F)F)c2)cn1 | 163 to 165
O=C(c1ccc(F)cc1)N1CCC[C@H](c2nc(-c3ccc([N+](=O)[O-])cc3)no2)C1 | 162 to 164
CC(C)Cc1cc(=O)c2cc(OCCCCCN3CCC(O)CC3)ccc2o1 | 98 to 99
COc1ccccc1-n1nc(S(=O)(=O)c2ccc(Cl)cc2)c(C)c(C#N)c1=O | 175 to 178
CC(=O)C(C#N)c1ccccc1 (stereo unspecified) | > 215
COC(=O)C(C)(C)c1ccc(OCCNC(=O)C2Cc3ccccc3N2S(=O)(=O)c2ccc(-c3cc(C(F)(F)F)ccc3Cl)cc2)cc1 (stereo unspecified) | 66 to 72
O=C(C1CCN(S(=O)(=O)c2ccc(Cl)cc2)CC1)N1CCN(c2ccncn2)CC1 | 125 to 128
CCN1CN(C)C(=S)N(c2cc(Cl)ccc2C)C1 | 93 to 95
CC#CCOc1cc(Cc2c(F)cccc2F)ncn1 | 57.6
COc1ccc(-c2cc(N(C)c3c(C)cc(C)cc3C)nc(C)n2)cc1OC | 124 to 125
Cc1nc2sccn2c(=O)c1O | 225 to 227
CN1Cc2c(C#CC(O)(C3CC3)C3CC3)ncn2-c2cccc(Cl)c2C1=O | 179 to 181
O=S1OCCN1c1cc(-c2ccnc(Nc3cccc(Cl)c3)n2)ccn1 (stereo unspecified) | 202 to 203
Cc1cccnc1CCOc1ccc(NC(=O)N(C)C)cc1 | 123 to 125
CCOC(=O)/C(C)=C(/C)c1cn(C(c2ccccc2)(c2ccccc2)c2ccccc2)cn1 | 166 to 168
Nc1ccc(/C=C/c2ccccc2)cc1 | 151
COC(=O)c1c(O)c2cc(OCc3ccccc3)ccc2c(=O)n1CC(C)C | 109 to 110
Cn1nc(-c2ccc(Br)cc2)c2ccccc2c1=O | 168 to 170
O=C(Nc1ccc(Cl)cc1)N[C@H]1C[C@H](C(=O)O)Nc2cc(Cl)cc(Cl)c21 (relative stereo) | 199 to 200
Cc1cccc(C(=O)Nc2c[nH]nc2C(=O)NCC(C)(C)CO)n1 | 217 to 218
